Reference: ChEMBL document CHEMBL1255205, “Validated predictive QSAR modeling of N-aryl-oxazolidinone-5-carboxamides for anti-HIV protease activity” (Bioorg Med Chem Lett, 2010)

Biological target: Protease (Human immunodeficiency virus 1, UniProt Q9YQ12)
Test: Inhibition of HIV1 protease

Chain of Protease (Q9YQ12 whole entry): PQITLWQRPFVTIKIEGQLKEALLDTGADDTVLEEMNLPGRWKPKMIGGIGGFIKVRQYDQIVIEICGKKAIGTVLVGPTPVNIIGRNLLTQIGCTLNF

SMILES	Ki [nM]
CC(=O)c1cccc(N2C[C@@H](C(=O)N[C@@H](Cc3ccccc3)C(O)C[C@H](Cc3ccccc3)NC(=O)COc3c(C)cccc3C)OC2=O)c1 (stereo partly drawn)	35.1
CC(=O)NC(C(=O)N[C@@H](Cc1ccccc1)CC(O)[C@H](Cc1ccccc1)NC(=O)[C@@H]1CN(c2ccc(F)c(F)c2)C(=O)O1)C(C)C (stereo partly drawn)	2.13
O=C(N[C@@H](Cc1ccccc1)C(O)C[C@H](Cc1ccccc1)NC(=O)[C@@H]1CN(c2cccc(C(F)(F)F)c2)C(=O)O1)OCc1ccccn1 (stereo partly drawn)	41.1
CC(=O)NC(C(=O)N[C@@H](Cc1ccccc1)CC(O)[C@H](Cc1ccccc1)NC(=O)[C@@H]1CN(c2cccc(C(F)(F)F)c2)C(=O)O1)C(C)C (stereo partly drawn)	2.62
COC(=O)NC(C(=O)N[C@@H](Cc1ccccc1)CC(O)[C@H](Cc1ccccc1)NC(=O)[C@@H]1CN(c2ccccc2)C(=O)O1)C(C)(C)C (stereo partly drawn)	3.51
CC(=O)c1ccc(N2C[C@@H](C(=O)N[C@@H](Cc3ccccc3)C(O)C[C@H](Cc3ccccc3)NC(=O)COc3c(C)cccc3C)OC2=O)cc1 (stereo partly drawn)	39.9
COC(=O)NC(C(=O)NN(CC(C)C)CC(O)[C@H](Cc1ccccc1)NC(=O)[C@@H]1CN(c2ccccc2)C(=O)O1)C(C)(C)C (stereo partly drawn)	7
Cc1cccc(C)c1OCC(=O)N[C@@H](Cc1ccccc1)C(O)C[C@H](Cc1ccccc1)NC(=O)[C@@H]1CN(c2ccccc2)C(=O)O1 (stereo partly drawn)	4730
O=C(Cc1ccc2c(c1)OCO2)N[C@H](CC[C@H](Cc1ccccc1)NC(=O)[C@@H]1CN(c2ccccc2)C(=O)O1)Cc1ccccc1	657
CC(=O)c1cccc(N2CC(C(=O)NN(Cc3ccc(-c4ccccn4)cc3)CC(O)[C@H](Cc3ccccc3)NC(=O)[C@@H]3CN(c4cccc(C(C)=O)c4)C(=O)O3)OC2=O)c1 (stereo partly drawn)	1090
Cc1cccc(C)c1OCC(=O)N[C@@H](Cc1ccccc1)CC(O)[C@H](Cc1ccccc1)NC(=O)[C@@H]1CN(c2ccccc2)C(=O)O1 (stereo partly drawn)	8.05
Cc1cccc(C)c1OCC(=O)N[C@@H](Cc1ccccc1)C(O)C[C@H](Cc1ccccc1)NC(=O)[C@@H]1CN(c2cccc(C(F)(F)F)c2)C(=O)O1 (stereo partly drawn)	21.6
COC(=O)NC(C(=O)N[C@@H](Cc1ccccc1)C(O)CN(CC(C)C)NC(=O)C1CN(c2ccccc2)C(=O)O1)C(C)(C)C (stereo partly drawn)	10.6
